From ChEMBL document CHEMBL1201862, “PubChem BioAssay data set” (2004)
Activity calls are given as the source filed them.

Key:
[1] = molecular target: Potassium voltage-gated channel subfamily KQT member 2 (Rattus norvegicus, UniProt O88943); assay: retigabine-insensitive KCNQ2 potentiators, concentration-response, dose response, cell-based, retigabine-insensitive compounds (AID 2654); assay type: functional
[2] = molecular target: Potassium voltage-gated channel subfamily KQT member 2 (Rattus norvegicus, UniProt O88943, W236L); assay: KCNQ2 channel potentiators, dose response, mechanism study for KCNQ2 potentiator project, cell-based, automated electrophysiology (AID 2603); assay type: functional
[3] = molecular target: Metabotropic glutamate receptor 4 (Rattus norvegicus, UniProt P31423); assay: Modulation of the Metabotropic Glutamate Receptor mGluR4: Rat PAM Potency. [Related pubchem assays (depositor defined):AID2437, AID2807]; assay type: functional
[4] = molecular target: Heat shock protein HSP 90-alpha (Homo sapiens, UniProt P07900); assay: Luminescence-based dose response biochemical high throughput screening assay for inhibitors of the Heat Shock Protein 90 (HSP90). [Related pubchem assays: 1831 (Summary AID.), 1846 (Confirmation screen.), 1789 (Primary screen.)]
HEK293 [5] = assay: TNF Induced NF-kB Luciferase in 293-NF-kB-Luc Stable Cells. [Related pubchem assays: 1266, 1299, 1269, 1373, 1292, 1290, 1302, 1371, 1283, 1270, 1295, 1271, 1375, 1294, 1374, 1281, 1293, 1291, 1289, 1280, 465, 1368, 1364, 1282, 1372, 1365, 1369, 1370, 1367, 1366 ]; assay type: functional, cell-based; details: Homo sapiens
HEK293 [6] = assay: PMA/Ionomycin-induced IL-8 production in HEK293- NF-kB-Luc stable cells. [Related pubchem assays: 1299, 1295, 1375, 1287, 1281, 1293, 1291, 1289, 1280, 465, 1364, 1282, 1372, 1365, 1367, 1366, 1266, 1269, 1373, 1292, 1290, 1302, 1371, 1283, 1271, 1294, 1374, 1368, 1369 ]; assay type: functional, cell-based; details: Homo sapiens
[7] = inhibitors of clade B AD8 Env fusion, dose response, cell-based, cherry-pick (AID 652062); assay type: functional;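 also: luciferase signal from cell-cell fusion driven by HIV-1 clade B AD8 Env; potency is for inhibitors of fusion seen as a drop in luminescence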
HEK293 [8] = assay: Cytotoxicity assay in HEK293 cells. [Related pubchem assays (depositor defined):AID1266, AID1269, AID1270, AID1271, AID1280, AID1281, AID1282, AID1283, AID1287, AID1289, AID1290, AID1291, AID1292, AID1293, AID1294, AID1295, AID1299, AID1302, AID1364, AID1365, AID1366, AID1367, AID1369, AID1370, AID1371, AID1372, AID1373, AID1374, AID1375, AID1384 …; assay type: functional, cell-based; details: Homo sapiens
[9] = cytotoxicity in HEK-293T cells, dose response, cytotoxicity control for BCR NF-kB inhibitor project, luminescence, B-cell screen hits (AID 489021); assay type: functional, cell-based;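 also: HEK-293T cells carrying an NF-kB luciferase reporter; cells exposed to compound for about 14 hours before viability readout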
[10] = ZM109 Env clade C HIV-1 fusion inhibitors, dose response, HeLa effector, CEM target cells, luciferase, cherry-pick (AID 652058); assay type: functional, cell-based
Paired box protein Pax-8 = Paired box protein Pax-8 (Homo sapiens, UniProt Q06710); assay: inhibitors of PAX8-driven TPO luciferase reporter, dose response, RMG-I cells, cherry-pick (AID 687027); assay type: functional, cell-based;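 also: luciferase reporter driven by Pax8 target thyroperoxidase promoter measured by SteadyGlo luminescence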
[11] = inhibitors of HIV Env-driven cell fusion, dose response, cherry-pick (AID 652057); assay type: functional, cell-based
HEK293 [12] = assay: PMA/Ionomycin induced NF-kB luciferase assay in 293- NF-kB-Luc stable cells. [Related pubchem assays: 1299, 1270, 1295, 1375, 1287, 1281, 1293, 1291, 1289, 1280, 465, 1364, 1282, 1372, 1365, 1370, 1367, 1366, 1269, 1373, 1292, 1290, 1302, 1371, 1283, 1271, 1294, 1374, 1368, 1369 ]; assay type: functional, cell-based; details: Homo sapiens
[13] = off-target signal loss in HeLa-CEM21 co-culture – HeLa F-luc CTL cells, cherry-picked, counter-screen for HIV-1 Env fusion inhibitor project, dose response (AID 652040); assay type: functional, cell-based;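 also: potency for signal decrease marking cytotoxic or nonspecific inhibition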
[14] = molecular target: Luciferin 4-monooxygenase (Photinus pyralis, UniProt P08659); assay: In vitro luciferase assay using purified luciferase. [Related pubchem assays: 1299, 1270, 1295, 1375, 1287, 1281, 1293, 1291, 1289, 1280, 465, 1364, 1282, 1372, 1365, 1370, 1367, 1366, 1266, 1373, 1292, 1290, 1302, 1371, 1283, 1271, 1294, 1374, 1368, 1369 ]
[15] = test system: Streptococcus sp. 'group A'; assay: growth inhibition of control SK(-) GAS strain, dose response, counter-screen for streptokinase expression inhibitor project, luminescence, kanamycin, BacTiterGlo, confirmation (AID 1900); assay type: functional, organism-based
Streptokinase A = molecular target: T1, Streptokinase A (Streptococcus pyogenes serotype M1, UniProt P10520); assay: S. pyogenes streptokinase expression inhibitors, potency, dose response, plasminogen activation absorbance, OD405 (AID 1914); assay type: functional, Streptococcus pyogenes M1 GAS;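 also: secreted streptokinase activity via plasminogen activation per viability signal from cell pellet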
T1 sequence (P10520 whole entry): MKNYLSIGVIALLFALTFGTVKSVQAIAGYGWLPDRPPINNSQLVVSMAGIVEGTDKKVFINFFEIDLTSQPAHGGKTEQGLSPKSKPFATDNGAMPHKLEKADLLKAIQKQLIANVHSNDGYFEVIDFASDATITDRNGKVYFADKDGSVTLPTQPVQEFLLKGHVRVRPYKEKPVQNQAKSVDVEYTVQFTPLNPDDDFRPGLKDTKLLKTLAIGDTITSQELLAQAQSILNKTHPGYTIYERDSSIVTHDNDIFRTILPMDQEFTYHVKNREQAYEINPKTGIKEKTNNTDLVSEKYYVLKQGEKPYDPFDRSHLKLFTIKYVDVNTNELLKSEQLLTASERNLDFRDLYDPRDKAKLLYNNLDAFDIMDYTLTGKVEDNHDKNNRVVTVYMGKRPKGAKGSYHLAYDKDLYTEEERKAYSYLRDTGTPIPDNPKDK

Streptococcus = assay: Group A Streptococcus viability loss, dose response, counter-screen for streptokinase expression inhibitor project, luminescence, BacTiterGlo (AID 1915); assay type: functional, organism-based;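 also: potency for reduction of bacterial viability or growth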
[16] = Luminescence Cell-Based Dose Retest to Confirm Inhibitors of Cancer Stem Cells. [Related pubchem assays (depositor defined):AID2717, AID2721]; assay type: functional; details: Homo sapiens
Salmon testes DNA = assay: DNA intercalators displacing acridine orange, dose response, artefact control for KSHV LANA DNA-binding inhibitor project, biochemical, fluorescence polarization, cherry-picked samples, set 2 (AID 504727); set-up: species or system Salmonidae
[17] = molecular target: T2, Rac GTPase-activating protein 1 (Homo sapiens, UniProt Q9H0H5); assay: MgcRacGAP GTPase-activating activity inhibitors, confirmation, biochemical, ADP Hunter fluorescence, primary and confirmatory (AID 624330); assay type: functional
T2 sequence (Q9H0H5 whole entry): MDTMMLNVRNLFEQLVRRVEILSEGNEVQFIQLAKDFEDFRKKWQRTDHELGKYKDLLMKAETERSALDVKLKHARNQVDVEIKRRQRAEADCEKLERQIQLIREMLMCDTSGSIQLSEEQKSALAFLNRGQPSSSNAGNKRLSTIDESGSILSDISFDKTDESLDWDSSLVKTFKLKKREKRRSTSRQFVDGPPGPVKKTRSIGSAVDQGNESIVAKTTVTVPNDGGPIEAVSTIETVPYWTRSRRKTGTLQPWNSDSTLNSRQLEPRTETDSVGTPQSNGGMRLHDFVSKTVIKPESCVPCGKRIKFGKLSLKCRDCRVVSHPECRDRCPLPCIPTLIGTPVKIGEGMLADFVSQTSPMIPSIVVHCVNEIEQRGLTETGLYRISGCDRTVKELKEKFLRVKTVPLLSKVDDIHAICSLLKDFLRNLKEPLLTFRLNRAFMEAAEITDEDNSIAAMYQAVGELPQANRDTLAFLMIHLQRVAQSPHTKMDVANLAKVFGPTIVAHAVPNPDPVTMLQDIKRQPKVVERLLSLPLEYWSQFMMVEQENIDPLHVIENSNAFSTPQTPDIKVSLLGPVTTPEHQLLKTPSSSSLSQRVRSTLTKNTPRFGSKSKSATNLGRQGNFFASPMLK

Keap1/Nrf2 = Keap1/Nrf2 (Homo sapiens, UniProt Q14145); assay: Keap1-Nrf2 protein-protein interaction inhibitors, dose response, biochemical, fluorescence polarization, cherry-picked samples (AID 588683)
HeLa = assay: HeLa cell cytotoxicity, dose response, cytotoxicity control, 24 h, cherry-picked samples (AID 504726); assay type: functional, cell-based; details: Homo sapiens;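 also: potency for cytotoxicity as loss of luminescence signal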
ORF 73 = ORF 73 (Human herpesvirus 8, UniProt O40947); assay: inhibitors of C-LANA binding to LBS DNA, dose response, biochemical, fluorescence polarization, cherry-picked samples (AID 504725); set-up: species or system Human gammaherpesvirus 8;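 also: fluorescence polarization of a labeled DNA duplex reporting LANA DNA binding; potency is for inhibitors that block LANA binding to the DNA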
[18] = molecular target: Intestinal-type alkaline phosphatase (Homo sapiens, UniProt P09923); assay: Dose Response confirmation of uHTS hits from a small molecule inhibitors of human intestinal alkaline phosphatase via a luminescent assay. [Related pubchem assays (depositor defined):AID2544, AID2574]; assay type: functional
Coagulation factor XII = molecular target: T3, Coagulation factor XII (Homo sapiens, UniProt P00748); assay: FXIIa inhibitor potency, concentration-response, biochemical (AID 716); assay type: functional
T3 sequence (P00748 whole entry): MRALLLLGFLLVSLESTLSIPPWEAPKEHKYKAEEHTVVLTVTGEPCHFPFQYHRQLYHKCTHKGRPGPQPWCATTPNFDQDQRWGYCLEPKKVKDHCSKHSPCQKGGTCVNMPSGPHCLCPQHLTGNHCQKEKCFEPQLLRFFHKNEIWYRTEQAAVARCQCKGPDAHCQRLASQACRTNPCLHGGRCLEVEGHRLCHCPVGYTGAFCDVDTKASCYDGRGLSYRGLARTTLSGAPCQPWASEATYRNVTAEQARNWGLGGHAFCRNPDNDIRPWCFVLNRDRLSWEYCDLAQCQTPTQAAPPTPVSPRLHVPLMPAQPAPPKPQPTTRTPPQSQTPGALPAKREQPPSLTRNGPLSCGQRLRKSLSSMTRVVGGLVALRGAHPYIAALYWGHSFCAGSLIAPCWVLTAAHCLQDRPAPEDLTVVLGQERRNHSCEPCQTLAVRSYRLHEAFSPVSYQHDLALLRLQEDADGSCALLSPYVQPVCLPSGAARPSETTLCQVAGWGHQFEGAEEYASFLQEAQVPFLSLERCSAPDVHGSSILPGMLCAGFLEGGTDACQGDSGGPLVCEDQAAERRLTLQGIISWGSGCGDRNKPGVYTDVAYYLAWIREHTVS

[19] = molecular target: FAD-linked sulfhydryl oxidase ALR (Homo sapiens, UniProt P55789); assay: inhibitors of human ALR sulfhydryl oxidase, dose response, biochemical, H2O2 detection, luminescence, cherry-pick (AID 493248)
FAD-linked sulfhydryl oxidase ALR, sequence (P55789 whole entry): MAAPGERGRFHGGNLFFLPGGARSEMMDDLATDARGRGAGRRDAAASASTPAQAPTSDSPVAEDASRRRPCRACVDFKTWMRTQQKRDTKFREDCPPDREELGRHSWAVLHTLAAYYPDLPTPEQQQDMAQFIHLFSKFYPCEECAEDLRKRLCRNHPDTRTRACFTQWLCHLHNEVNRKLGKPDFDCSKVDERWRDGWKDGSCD

Potassium voltage-gated channel subfamily KQT member 2 (Rattus norvegicus, UniProt O88943, W236L), sequence (O88943 whole entry W236L): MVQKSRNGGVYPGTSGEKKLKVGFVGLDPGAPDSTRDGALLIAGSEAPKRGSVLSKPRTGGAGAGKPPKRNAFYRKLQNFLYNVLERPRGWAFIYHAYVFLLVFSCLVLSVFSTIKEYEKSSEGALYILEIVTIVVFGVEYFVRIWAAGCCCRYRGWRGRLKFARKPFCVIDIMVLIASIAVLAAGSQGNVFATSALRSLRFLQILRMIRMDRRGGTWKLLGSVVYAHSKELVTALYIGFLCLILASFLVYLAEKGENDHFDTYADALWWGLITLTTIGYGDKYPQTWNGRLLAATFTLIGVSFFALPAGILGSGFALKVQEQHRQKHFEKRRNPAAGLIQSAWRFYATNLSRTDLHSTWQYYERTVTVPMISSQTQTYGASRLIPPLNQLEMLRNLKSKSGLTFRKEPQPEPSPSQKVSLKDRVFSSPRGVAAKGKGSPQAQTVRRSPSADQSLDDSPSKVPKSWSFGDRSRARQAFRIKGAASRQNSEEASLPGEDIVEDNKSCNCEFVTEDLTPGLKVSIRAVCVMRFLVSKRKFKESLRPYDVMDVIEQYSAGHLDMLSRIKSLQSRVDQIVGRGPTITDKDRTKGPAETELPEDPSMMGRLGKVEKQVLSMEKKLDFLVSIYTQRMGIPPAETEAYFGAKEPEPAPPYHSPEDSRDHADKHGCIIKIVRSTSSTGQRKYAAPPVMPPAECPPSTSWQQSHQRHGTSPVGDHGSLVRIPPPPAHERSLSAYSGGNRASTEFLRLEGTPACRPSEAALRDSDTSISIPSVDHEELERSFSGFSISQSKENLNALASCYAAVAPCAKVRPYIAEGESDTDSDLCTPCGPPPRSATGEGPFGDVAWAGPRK
Paired box protein Pax-8, sequence (Q06710 whole entry, the tested form may be a part): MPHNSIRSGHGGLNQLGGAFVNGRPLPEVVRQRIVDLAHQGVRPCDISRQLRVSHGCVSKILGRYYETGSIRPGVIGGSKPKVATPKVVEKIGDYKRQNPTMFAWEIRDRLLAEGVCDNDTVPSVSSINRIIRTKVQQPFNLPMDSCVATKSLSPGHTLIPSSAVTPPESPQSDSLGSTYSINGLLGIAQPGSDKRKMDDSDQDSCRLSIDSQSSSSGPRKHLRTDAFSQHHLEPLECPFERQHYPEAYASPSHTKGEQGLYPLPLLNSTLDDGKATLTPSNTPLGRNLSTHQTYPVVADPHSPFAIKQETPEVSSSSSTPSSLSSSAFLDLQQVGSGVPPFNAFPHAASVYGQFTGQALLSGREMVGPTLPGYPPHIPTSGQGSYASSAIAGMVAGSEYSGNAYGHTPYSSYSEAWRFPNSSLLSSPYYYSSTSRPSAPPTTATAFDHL
Metabotropic glutamate receptor 4, sequence (P31423 whole entry): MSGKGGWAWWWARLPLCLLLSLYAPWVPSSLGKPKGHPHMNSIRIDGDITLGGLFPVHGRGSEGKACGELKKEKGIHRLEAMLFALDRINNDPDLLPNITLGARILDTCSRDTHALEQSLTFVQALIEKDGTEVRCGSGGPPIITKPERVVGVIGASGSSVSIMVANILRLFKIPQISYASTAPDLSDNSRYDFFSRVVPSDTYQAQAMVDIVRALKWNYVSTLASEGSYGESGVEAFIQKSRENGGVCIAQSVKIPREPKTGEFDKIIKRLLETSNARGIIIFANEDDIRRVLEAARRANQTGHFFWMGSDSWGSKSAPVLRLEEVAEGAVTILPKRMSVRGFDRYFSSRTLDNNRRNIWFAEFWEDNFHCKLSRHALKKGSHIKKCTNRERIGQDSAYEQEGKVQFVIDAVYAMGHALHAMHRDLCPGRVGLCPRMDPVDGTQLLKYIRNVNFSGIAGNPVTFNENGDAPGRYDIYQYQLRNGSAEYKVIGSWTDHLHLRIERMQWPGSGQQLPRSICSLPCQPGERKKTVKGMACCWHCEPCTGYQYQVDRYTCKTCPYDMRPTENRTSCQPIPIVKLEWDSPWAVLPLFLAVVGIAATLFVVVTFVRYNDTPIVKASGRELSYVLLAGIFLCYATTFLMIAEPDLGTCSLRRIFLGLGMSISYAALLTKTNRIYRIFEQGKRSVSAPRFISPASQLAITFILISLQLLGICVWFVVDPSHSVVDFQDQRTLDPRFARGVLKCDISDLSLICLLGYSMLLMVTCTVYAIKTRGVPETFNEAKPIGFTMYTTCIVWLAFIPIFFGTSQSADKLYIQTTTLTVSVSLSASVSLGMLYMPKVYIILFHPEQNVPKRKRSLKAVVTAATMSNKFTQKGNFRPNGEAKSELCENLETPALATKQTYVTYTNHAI
Potassium voltage-gated channel subfamily KQT member 2 (Rattus norvegicus, UniProt O88943), sequence (O88943 whole entry): as the sequence (O88943 whole entry W236L) above, with L236W counted along it
Keap1/Nrf2, sequence (Q16236 whole entry): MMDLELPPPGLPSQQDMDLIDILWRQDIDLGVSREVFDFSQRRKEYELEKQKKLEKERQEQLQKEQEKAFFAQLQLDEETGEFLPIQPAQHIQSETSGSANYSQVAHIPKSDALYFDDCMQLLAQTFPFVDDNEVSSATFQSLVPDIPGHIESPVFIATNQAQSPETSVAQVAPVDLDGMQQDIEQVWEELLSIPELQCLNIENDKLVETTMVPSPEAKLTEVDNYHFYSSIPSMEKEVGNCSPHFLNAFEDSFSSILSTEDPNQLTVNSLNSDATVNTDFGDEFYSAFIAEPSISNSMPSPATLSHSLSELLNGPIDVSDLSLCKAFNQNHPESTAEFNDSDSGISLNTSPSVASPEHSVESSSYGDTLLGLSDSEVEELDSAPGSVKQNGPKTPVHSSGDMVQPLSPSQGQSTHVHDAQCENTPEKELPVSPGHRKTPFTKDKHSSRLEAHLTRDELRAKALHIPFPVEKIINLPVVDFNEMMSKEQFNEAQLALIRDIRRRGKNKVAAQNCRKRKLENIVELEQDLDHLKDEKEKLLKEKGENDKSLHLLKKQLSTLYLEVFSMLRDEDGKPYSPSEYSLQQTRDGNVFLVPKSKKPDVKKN
Keap1/Nrf2, sequence (Q14145 whole entry): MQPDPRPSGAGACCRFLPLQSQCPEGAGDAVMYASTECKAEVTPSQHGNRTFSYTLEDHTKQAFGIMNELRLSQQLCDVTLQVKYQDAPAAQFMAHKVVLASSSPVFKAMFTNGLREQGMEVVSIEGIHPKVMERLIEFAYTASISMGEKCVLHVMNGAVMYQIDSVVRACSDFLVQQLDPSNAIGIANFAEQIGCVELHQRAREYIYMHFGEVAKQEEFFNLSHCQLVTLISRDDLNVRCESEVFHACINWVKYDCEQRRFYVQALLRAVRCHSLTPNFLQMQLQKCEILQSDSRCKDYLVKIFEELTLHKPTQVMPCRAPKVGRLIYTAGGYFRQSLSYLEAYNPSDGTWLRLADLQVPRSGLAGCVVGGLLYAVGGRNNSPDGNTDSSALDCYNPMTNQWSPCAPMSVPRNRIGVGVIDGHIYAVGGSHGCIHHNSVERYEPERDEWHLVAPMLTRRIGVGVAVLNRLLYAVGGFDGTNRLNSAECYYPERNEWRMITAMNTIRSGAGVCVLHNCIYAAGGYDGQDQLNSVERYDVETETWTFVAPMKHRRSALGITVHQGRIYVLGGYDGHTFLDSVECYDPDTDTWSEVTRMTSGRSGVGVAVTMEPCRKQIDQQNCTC
Intestinal-type alkaline phosphatase, sequence (P09923 whole entry): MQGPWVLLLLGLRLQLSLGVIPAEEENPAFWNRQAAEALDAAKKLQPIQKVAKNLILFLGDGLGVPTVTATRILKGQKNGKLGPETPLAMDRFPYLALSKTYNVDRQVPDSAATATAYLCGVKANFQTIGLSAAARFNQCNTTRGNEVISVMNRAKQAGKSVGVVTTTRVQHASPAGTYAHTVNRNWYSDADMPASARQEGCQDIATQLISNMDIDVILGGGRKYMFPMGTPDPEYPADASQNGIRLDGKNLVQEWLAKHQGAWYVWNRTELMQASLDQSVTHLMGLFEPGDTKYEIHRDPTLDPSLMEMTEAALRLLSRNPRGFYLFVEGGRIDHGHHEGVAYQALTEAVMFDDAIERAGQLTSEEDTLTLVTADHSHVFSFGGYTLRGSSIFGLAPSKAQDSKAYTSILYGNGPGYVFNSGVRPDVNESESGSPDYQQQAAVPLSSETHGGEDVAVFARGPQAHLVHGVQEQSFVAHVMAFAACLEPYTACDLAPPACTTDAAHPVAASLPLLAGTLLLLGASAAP
Luciferin 4-monooxygenase, sequence (P08659 whole entry): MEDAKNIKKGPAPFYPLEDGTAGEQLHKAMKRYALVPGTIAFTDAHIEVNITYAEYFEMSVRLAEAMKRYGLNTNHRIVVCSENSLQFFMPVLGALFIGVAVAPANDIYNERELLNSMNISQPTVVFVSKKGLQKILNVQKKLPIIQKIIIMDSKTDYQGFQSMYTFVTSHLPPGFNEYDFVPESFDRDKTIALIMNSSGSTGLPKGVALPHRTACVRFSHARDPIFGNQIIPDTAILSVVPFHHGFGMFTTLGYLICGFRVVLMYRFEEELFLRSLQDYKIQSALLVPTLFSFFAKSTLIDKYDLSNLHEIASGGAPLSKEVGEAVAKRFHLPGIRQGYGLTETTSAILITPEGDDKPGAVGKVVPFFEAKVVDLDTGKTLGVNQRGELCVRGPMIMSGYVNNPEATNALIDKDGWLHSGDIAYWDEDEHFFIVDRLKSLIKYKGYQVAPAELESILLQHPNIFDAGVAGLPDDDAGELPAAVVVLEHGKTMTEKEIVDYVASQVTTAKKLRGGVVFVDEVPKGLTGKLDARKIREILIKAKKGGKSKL

S=C(Nc1ccc(Oc2ccccc2)cc1)Nc1cccnc1
EC50 [1]: 4.45 µM (active) | EC50 [2]: 7.25 µM (active)

O=C(Nc1ccc(NC(=O)c2ccccc2Cl)c(F)c1)c1ccccn1
EC50 [3]: 0.74 µM (active)

O=C(CN1C(=O)c2ccccc2S1(=O)=O)N1CCc2ccccc21
IC50 [4]: 35.3 µM (not active) | EC50 (HEK293 [5]): > 8 µM (not active) | EC50 (HEK293 [6]): > 8 µM (not active) | AC50 [7]: 3.89 µM (active) | EC50 (HEK293 [8]): > 8 µM (inactive) | IC50 [9]: > 80 µM (inactive) | AC50 [10]: 8.62 µM (active) | AC50 (Paired box protein Pax-8): 4.88 µM (active) | AC50 [11]: 2.89 µM (active) | EC50 (HEK293 [12]): 0.53 µM (active) | AC50 [13]: 3.84 µM (active) | EC50 [14]: > 8 µM (not active)

COc1ccc(NC(=O)c2cccc(-c3ccc(O)cc3)c2)cn1
EC50 [15]: 16.9 µM (active) | EC50 (Streptokinase A): > 150 µM (not active) | EC50 (Streptococcus): > 150 µM (not active) | AC50 [16]: 4.31 µM (active) | AC50 (Salmon testes DNA): 45.4 µM (active) | IC50 [17]: 42.3 µM (active) | AC50 (Keap1/Nrf2): 43.8 µM (active) | AC50 (HeLa): 144 µM (active) | AC50 (ORF 73): 34.3 µM (active)

CCOc1cccc(OCCOCCOc2ccccc2C(C)=O)c1
IC50 [18]: > 100 µM (inactive)

CC(C)C1C(C#N)=C(N)Oc2[nH]nc(-c3cccs3)c21 (configuration not stated)
IC50 (Coagulation factor XII): > 50 µM (inactive) | AC50 [19]: 6.41 µM (active)
